Experimental data taken from patent US9351971B2, “Substituted 2,2′-biphenazines for treating diseases” (Eutropics Pharmaceuticals, Inc., priority 2010, dated 2016).
“Also recorded” adds a separate entry of the source.

Legend:
[1] = tested on: AML-3 acute myelogenous leukemia cell line; test: Cell viability MTS assay, AML-3; assay type: cell-based; conditions: Homo sapiens, AML3, 48 hours, read-out: EC50, cell killing in AML-3
Experimental: (§1) The lymphoid derived cell lines DHL-6 and DHL-10 were obtained from Anthony Letai of the Dana Father Cancer Research Institute, Boston, Mass. The […] derived cell line NCP-H929 was obtained irons, the NIH/NCI cell repository. AML-3 cells were obtained from Dr. Michael Andreef (MD Anderson Cancer Center, Houston, Tex.). Cells were grown in RPMI 1640 medium (GIBCO-BRL) supplemented with Pen-strep-glutamine (Gibco 10378) and 5% fetal bovine serum.
(§2) Cells were expanded in tissue culture in appropriate media and then subcultured into 96-well plates at a seeding density of 20,000-40,000 cells per well, and cells were treated with one or more compounds that were titrated info appropriate medium with FCS. Cell lines were treated with compound A at concentrations ranging from 25 μM to 25 nM. The BH3-mimetic obatoclax (Nguyen M et al. (2007), Proc. Natl. Acad. Sci. USA 104:19512-19517) was also tested against the SUDHL-6, SUDHL-10, and NCI-H929 cell lines. Cells were treated for 48 hours and scored for viability using the MTS assay (Promega). Growth inhibition was indicated as a percentage of control cell growth. Growth was determined by measuring the A570 (control cells)—A570 (treated cells)/A570 (control cells). EC50 values were calculated using Graphpad Prizm software.

[2] = tested on: SUDHL-6 lymphoid cell line; test: Cell viability MTS assay, SUDHL-6; assay type: cell-based; conditions: Homo sapiens, SU-DHL-6, 48 hours, read-out: EC50, cell killing in SUDHL-6
Experimental: as §1, §2

[3] = tested on: mitochondria in semi-permeabilized SUDHL-6 cells; test: In situ mitochondrial assay (cytochrome c release), SUDHL-6; assay type: cell-based; conditions: SUDHL-6 (DHL-6), Bax/Bak functional, 10 uM
From the text: The on-target activity of compound II-19 was validated. Changes in mitochondrial integrity were observed utilizing anti-cytochrome c conjugated to Alcxa488 (BD). When the mitochondria are intact, they retain cytochrome c and have bright, punctate staining with the antibody whereas cells with compromised mitochondrial integrity will lose cytochrome c and will not stain with the antibody. This can be observed by microscopy as well as measured by a shift in fluorescence on the FL1 channel of a flow cytometer.
The selective response of mitochondria in semi-permeabilized cell lines to the compounds was observed. The assay was adapted from (Campos et al. (2006) Cytometry Part A. 69(A):515-523).
Suspension cell lines SUDHL10 and SUDHL6 were grown in RPMI, washed once in 1xPBS and re-suspended at a concentration of 2e6/ml in assay buffer with 0.0025% Digitonin. Assay buffer; 300 mM Trehalose, 10 mM HEPES-KOH pH 7.7, 80 mM KCl, 1 mM EGTA, 1 mM EDTA, 0.1% BSA, 5 mM Succinate. Cells are incubated with test and control compounds at 10^6 cells/treatment for 1 hour at room temperature. […] Cytochrome c loss was measured by microscopy. At least 100 cells per treatment were counted and scored as positive for cytochrome c loss if they lacked staining. In both methods DMSO was calculated as 0% cytochrome c loss and the Bim response for DHL6 was used to determine 100% cytochrome c loss.

NCI H929 tumors = test: NCI H929 human myeloma xenograft model in mice; assay type: in vivo, mouse; conditions: vehicle 2300 mm^3
Experimental: Cell Culture: Tumor cell line NCI H929 was cultured according to ATCC recommendations in […] containing 10% fetal bovine serum and pen-strep. On the day of implantation, cells were washed 1× with phosphate buffered saline (PBS) and harvested via centrifugation. Cells were pelleted (5 min at 1000 rpm, RT) then resuspended in serum-free matrigel and kept on ice until implantation.
Tumor Cell Implantation: The cell line was implanted via subcutaneous injection on the right rear flank at a volume of 200 μl containing 3×10^7 cells per mouse; the injection site was cleaned using alcohol before and after injection to prevent any infection.
Tumor Assessment: Beginning 1 week post cell implantation all animals were weighed and tagged and tumors were measured and body weights taken 3 times weekly (length×width×height) on Monday, Wednesday, and Friday for the duration of study. Once an average tumor volume of 100-200 mm^3 was reached, animals were randomized and placed into 4 treatment groups of a minimum of 10 mice per group based on tumor size. Randomization was determined by tumor volume (length×width×height)[…] for all of the mice and average volume was calculated using a average function in Excel (Microsoft Professional).
Treatment: The study involved 4 groups of 10 animals per group. Animals in all dose groups were weighed on days of tumor measurement. All doses were administered i.p. at 10 mL/kg. The Bortezormib (1 mg/kg) group was once every 3 days for 15 days. The mice receiving vehicle and compound II-19 were dosed every second day. Compound II-19 was formulated in 1% DMSO, 10 mM Tris pH 8, 30% hydroxypropyl-beta-cyclodextrin; this vehicle was used as the “vehicle” control. Bortezomib was formulated in 30% propylene glycol, 5% Tween 80, 3.3% dextrose in water, pH 4, 1% DMSO.

[4] = tested on: NCI-H929 multiple myeloma cell line; test: Cell viability MTS assay, NCI-H929; assay type: cell-based; conditions: Homo sapiens, 48 hours, read-out: EC50, cell killing in NCI-H929
Experimental: as §1, §2

## COC(=O)c1ccc(O)c2nc3c(C=O)c(O)c(-c4c(O)c(C=O)c5nc6c(O)ccc(C(=O)OC)c6nc5c4O)c(O)c3nc12 [II-19, dimethyl 4,4′-diformyl-1,1′,3,3′,6,6′-hexahydroxy-[2,2′-biphenazine]-9,9′-dicarboxylate]
[1]
  EC50: 10 µM
[2]
  EC50: 3 µM
[3]
  cytochrome c release from mitochondria: causes release of cytochrome c; also recorded: direct activity
NCI H929 tumors; 1 mg/kg i.p. every second day
  average tumor size at the end of the study: 1740 mm^3
NCI H929 tumors; 3 mg/kg i.p. every second day
  average tumor size at the end of the study: 1600 mm^3
[4]
  EC50: 8 µM
